Results published in patent US20240002407A1, “THIENOPYRIMIDINONE DERIVATIVES” (Hoffmann-La Roche Inc., priority 2021, published 2024).

What follows are compounds tested on mutant HTT protein (mHTT) (assay: Homogeneous Time Resolved Fluorescence (HTRF) assay for HTT lowering in GENEAe020-A cells). Conditions: reduction of mHTT; Huntington patient human cells (GENEAe020-A cell line); 48 hours incubation; mean from three replicates.
Type: cell-based
Method: The HTRF assay was adapted from Weiss et al. (Analytical Biochemistry Volume 395, Issue 1, 1 Dec. 2009, Pages 8-15 and Analytical Biochemistry Volume 410, 2011, Pages 304-306) to cells from GENEAe020-A cell line (https://hpscreg.eu/cell-line/GENEAe020-A).
Compounds were tested for the effect of mutant HTT levels in Huntington patient human cells (GENEAe020-A cell line) using Homogeneous Time Resolved Fluorescence (HTRF) directed towards mutant HTT protein (mHTT). The GENEAe020-A cell line was derived by Genea Biocells from human blastocysts of HD donors. After assessing viability, cells were plated into 384 well collagen coated plates in growth media. Once cells adhered, media was removed and test compounds dissolved in DMSO were diluted with buffer solution and added to the adherent cells. Controls included experiments with no cells, DMSO with no compound, and Hsp90 inhibitor control. Cells were incubated with compounds and controls for 48 hours. Then, the cells were lysed and transferred to an assay plate containing HTRF labeled monoclonal antibodies developed by Paul Patterson (Ko et al., Brain Research Bulletin, Volume 56, Numbers 3 and 4, 2001, Pages 319-329) which recognize specific areas of the HTT protein. The terbium labeled “donor” antibody (2B7) binds to the N-terminus of the HTT protein and the Alexa488 labeled “acceptor” antibody (MW1) is specific for the polyglutamine region of the protein. Binding of the acceptor labeled antibody is more efficient for the extended polyglutamine repeats of mutant HTT protein which translates into a signal boost which enables the specific measurement of mutant HTT protein level. The HTRF donor and acceptor detection reagents were incubated with the cell lysate and the ratio between the signals of the two fluorophores is indicative of the relative quantities of mHTT.

First: Cc1cn2nc(-c3nc4sc([C@H]5CCNC[C@H]5F)cc4c(=O)[nH]3)cc(C)c2n1 (racemic) [Example 2, 2-(2,8-Dimethylimidazo[1,2-b]pyridazin-6-yl)-6-[(3SR,4SR)-3-fluoro-4-piperidyl]-3H-thieno[2,3-d]pyrimidin-4-one]
Second: Cc1cn2nc(-c3nc4sc(C5CCNCC5(F)F)cc4c(=O)[nH]3)cc(C)c2n1 (stereo not drawn) [Example 3, 6-(3,3-Difluoro-4-piperidyl)-2-(2,8-dimethylimidazo[1,2-b]pyridazin-6-yl)-3H-thieno[2,3-d]pyrimidin-4-one]
The EC50 of the first is 11-fold lower: 205 nM for the first, 2270 nM for the second. The first is the more potent here.

Going from `Cc1cn2nc(-c3nc4sc(C5CCNCC5)cc4c(=O)[nH]3)cc(C)c2n1` [Example 1, 2-(2,8-Dimethylimidazo[1,2-b]pyridazin-6-yl)-6-(4-piperidyl)-3H-thieno[2,3-d]pyrimidin-4-one hydrogen chloride] to `Cc1cn2nc(-c3nc4sc(OC5CCNCC5)cc4c(=O)[nH]3)cc(C)c2n1` [Example 5, 2-(2,8-Dimethylimidazo[1,2-b]pyridazin-6-yl)-6-(4-piperidyloxy)-3H-thieno[2,3-d]pyrimidin-4-one], the EC50 rises from 50 nM to 282 nM (5.6-fold).

Going from `Cc1cn2nc(-c3nc4sc(OC5CNC5)cc4c(=O)[nH]3)cc(C)c2n1` [Example 4, 6-(Azetidin-3-yloxy)-2-(2,8-dimethylimidazo[1,2-b]pyridazin-6-yl)-3H-thieno[2,3-d]pyrimidin-4-one] to `Cc1cn2nc(-c3nc4sc(C5CCNC6(CC6)C5)cc4c(=O)[nH]3)cc(C)c2n1` (stereo not drawn) [Example 6, 6-(4-Azaspiro[2.5]octan-7-yl)-2-(2,8-dimethylimidazo[1,2-b]pyridazin-6-yl)-3H-thieno[2,3-d]pyrimidin-4-one], the EC50 falls from 4700 nM to 203 nM (23-fold). The second is the more potent here.
